Format in all cases: in vivo, mice
For data set [1], the system named is CD31. Description: Immunohistochemistry of implant capsule: CD31 neovascularization. As to conditions: 75 mg/kg i.p. daily; explant at 2 weeks. The protocol: (§1) Eight-week-old C57BL/6 or Beige (C57BL/6J-Lyst^bg-J/J) female mice (Jackson Labs, Bar Harbor, ME, USA) (N=10/group) were treated with daily tamoxifen or vehicle injections into the intraperitoneal cavity 1 week before surgery. Tamoxifen injections consisted of 75 mg/kg tamoxifen citrate (Sigma, St. Louis MO, USA) in peanut oil (Sigma, St Louis MO, USA) with 10% ethanol (Sigma, St. Louis MO, USA) to promote dissolution of tamoxifen, while control injections consisted of only peanut oil and ethanol. Daily injections continued until the day of explantation, two weeks after implantation.
(§2) Mice were anesthetized with a standard ketamine/xylazine cocktail. […]
(§3) Explanted silicone pieces and surrounding capsules were fixed overnight in formaldehyde at 4° C. and transitioned to 70% ethanol. […] Primary antibody binding was detected by subsequent incubation with species appropriate biotinylated IgG (Vector Laboratories, CA, USA), followed by streptavidin-horse radish peroxidase (Vector Laboratories, CA, USA) and chromogenic development with 3,3-diaminobenzidine (Vector Laboratories, CA, USA). […] Slides were imaged on a Zeiss Axio Observer Z1 inverted microscope (Zeiss, Germany) and quantified using ImageJ (NIH, USA). […]
(§4) All statistical analysis was performed in Prism 8.0 (GraphPad, San Diego, CA, USA). Data was evaluated for outliers using the Grubb's test. […]

Data set [2] deals with CD163. As to the kind of experiment: Immunohistochemistry of implant capsule: CD163 anti-inflammatory macrophages. The following applies: 75 mg/kg i.p. daily; explant at 2 weeks. Here is the method: as §1, §2, §3, §4
Data set [3] has as its system Estrogen receptor α (ER-α). Description: Immunohistochemistry of implant capsule: ER-α. The following applies: 75 mg/kg i.p. daily; explant at 2 weeks. The protocol: as §1, §2, §3, §4
Data set [4] concerns estrogen receptor β (ER-β). Description: Immunohistochemistry of implant capsule: ER-β. As to conditions: 75 mg/kg i.p. daily; explant at 2 weeks. The protocol: as §1, §2, §3, §4
Data set [5] deals with fibrous capsule around silicone implants. Description: Silicone breast implant capsule formation in mouse model (H&E, Picro-Sirius Red histology). The protocol:
as §1
(§5) Mice were anesthetized with a standard ketamine/xylazine cocktail. Fur was clipped and skin was prepped with betadine followed by alcohol pads. Silicone prostheses were implanted in the submammary plane, bilaterally, giving a total of 20 implants per experimental group (FIG. 1B). Skin incisions were re-approximated with 6-0 nylon suture (FIG. 1C).
(§6) After 2 weeks, mice were euthanized and the silicone prostheses were removed en bloc with all surrounding tissue, including the overlying skin for orientation (FIG. 1D). […] These samples were excluded from further analysis owing to the potential confounding nature of bacterial contamination on capsule formation.
Explanted silicone pieces and surrounding capsules were fixed overnight in formaldehyde at 4° C. and transitioned to 70% ethanol. Samples were then paraffin embedded and sectioned at 4 μm. Samples were stained with H&E (FIG. 1E) or Picro-Sirius Red. Immunohistochemistry sections were deparaffinized, rehydrated and blocked for endogenous peroxidase activity (3% H2O2 in H2O) and nonspecific background staining (3% normal goat serum in Background Sniper, BioCare Medical, CA, USA). Antigen retrieval was performed with citrate buffer (pH 6.0) or Tris-EDTA (pH 9.0) in a pressure cooker for 10 minutes and slides were incubated for 30 minutes at room temperature with primary antibodies. Primary antibodies (all from Abcam, Cambridge, UK) included α-SMA (ab124964), CD31 (ab28364), CD68 (ab125212), iNOS (ab15323), CD163 (ab182422), Ki67 (ab15580), ER-α (ab271827), and ER-β (ab3576). Primary antibody binding was detected by subsequent incubation with species appropriate biotinylated IgG (Vector Laboratories, CA, USA), followed by streptavidin-horse radish peroxidase (Vector Laboratories, CA, USA) and chromogenic development with 3,3-diaminobenzidine (Vector Laboratories, CA, USA). Tissue sections were counterstained with Gill's hematoxylin (Vector Laboratories, CA, USA), slides were dehydrated and a cover slip was placed. Slides were imaged on a Zeiss Axio Observer Z1 inverted microscope (Zeiss, Germany) and quantified using ImageJ (NIH, USA).
Histology was quantified from H&E slides within the fibrous capsule on the side oriented with overlying skin to maintain consistency and remove potential variability by dissection at explantation.
(§7) All statistical analysis was performed in Prism 8.0 (GraphPad, San Diego, CA, USA). Data was evaluated for outliers using the Grubb's test. Control and tamoxifen-treated groups were compared with unpaired t-tests, except in cases where the equal variance assumption was violated; when the nonparametric Mann-Whitney test was utilized. A p-value of 0.05 was considered significant.

The test system of data set [6] is Alpha smooth muscle actin (αSMA). Description: Immunohistochemistry of implant capsule: αSMA myofibroblasts. As to conditions: 75 mg/kg i.p. daily; explant at 2 weeks. The protocol: as §1, §2, §3, §4
For data set [7], the system named is CD68. Description: Immunohistochemistry of implant capsule: CD68 macrophage infiltration. As to conditions: 75 mg/kg i.p. daily; explant at 2 weeks. The protocol:
as §1, §2, §3, §4

Data set [8] relates to iNOS. Description: Immunohistochemistry of implant capsule: iNOS pro-inflammatory macrophages. As to conditions: 75 mg/kg i.p. daily; explant at 2 weeks. The protocol:
as §1, §2, §3, §4

Data set [9] has as its system Ki-67. Description: Immunohistochemistry of implant capsule: Ki-67 cellular proliferation. The following applies: 75 mg/kg i.p. daily; explant at 2 weeks. The protocol:
as §1, §2, §3, §4

Data set [10] is described as follows: Mouse body weight during tamoxifen treatment in silicone implant model. The following applies: 75 mg/kg tamoxifen citrate i.p. daily. Here is the method:
as §1, §5, §6, §7

[11] abbreviates: Picro-Sirius Red, 75 mg/kg i.p. daily, explant at 2 weeks.

On to `CC/C(=C(\c1ccccc1)c1ccc(OCCN(C)C)cc1)c1ccccc1` [tamoxifen], for which, in data set [1], the “CD31+ vessels per mm^2” value was 106.3±51.8 vessels/mm^2 and the “total CD31+ vessels” value came out at 15.9±9.7 vessels/mm. For the same molecule, in data set [2], the “cellular fraction of CD163” value turned out to be 29.1±8.4% and the “total number of cells with positivity for CD163” value is given as 94.1±45.9 cells/mm. Besides, in [3], the “ER-α expression as a fraction of total cells” value is recorded as 31.0±6.3% and the “ER-α total cells/mm of capsular tissue” value is 107.0±39.8 cells/mm. In data set [4], the “ER-β expression, cellular fraction” value is 36.8±7.5% and the ER-β total cells/mm is reported as 106.2±69.2 cells/mm. Further, the “cellularity of the capsules” value in [5] (75 mg/kg i.p. daily, explant at 2 weeks) came to 3624±608 cells/mm^2. In data set [5] (75 mg/kg tamoxifen citrate i.p. daily, explant 2 weeks after implantation), this molecule registered a capsule thickness of 132±49 μm. Further, in [5] (setting [11]), the “area percent of collagen” value is 36.2±3.1% and the “total collagen surrounding the implants” value is on record as 43598±10044 μm^2. Further, in data set [5] (tamoxifen-treated vs control, explant at 2 weeks), the “reduction in capsule thickness” value stood at 59%. Moreover, in data set [6], the “linear density of αSMA+ cells” value is listed as 295±121 cells/mm and the “percentage of total cells αSMA+” value worked out at 47.9±9.5%. In [7], the “cellular fraction of CD68” value amounted to 55.9±16.0% and the “linear density of CD68+ cells” value was determined as 303.3±136.5 cells/mm. In [8], the “cellular fraction of iNOS” value is 60.6±12.6% and the “total number of cells with positivity for iNOS” value was found to be 290.6±104.2 cells/mm. Besides, in data set [9], the “Ki-67+ cells/mm” value is 324±125 cells/mm and the “cellular fraction of Ki-67+ cells” value was 62.4±16.9%. Besides, the “body weight at the date of surgery” value in data set [10] (one week after start of injections) was 16.2±1.6 gram body weight. Moreover, the “body weight at the start of the injection period” value in [10] (start of injections, 1 week before surgery) was 17.6±1.2 gram body weight. In addition, the “body weight at the two-week explant date” value in data set [10] (two weeks after implantation) was 16.6±1.0 gram body weight.

Values taken from patent publication US20240165056A1, “USE OF TAMOXIFEN AND RELATED COMPOUNDS TO REDUCE BREAST IMPLANT CAPSULE FORMATION AND CAPSULAR CONTRACTURE” (Ohio State Innovation Foundation, priority 2021, published 2024).
